Experimental data from patent US6994981B2, “Modulators of paraptosis and related methods” (The Buck Institute, priority 2002, dated 2006).
“Also recorded” adds a separate entry of the source.

Legend:
[1] = test system: cytoplasmic calcium; assay: Imaging of cytoplasmic calcium in single striatal cells; assay type: cell-based
Description: Single-cell imaging was performed in a Merlin imaging facility (Olympus America, USA) using an Olympus IX70 inverted epifluorescence microscope equipped with a 40× oil immersion objective and a Spectramaster monochromator (Life Science Resources, Cambridge, UK) (excitation, 340 and 380 nm; emission >505 nm). Cells were loaded with 3 μM Fura-2 AM (from TEF LABS, Texas, USA) for 30 min in incubation medium containing (in mM): 120 NaCl, 3.5 KCl, 1.3 CaCl2, 0.4 KH2PO4, 20 TES buffer, 5 NaHCO3, 1.2 Na2SO4, 15 Glucose, 1.2 MgCl2, pH adjusted to 7.4 with NaOH. 30 μg/ml bovine serum albumin was also added. Experiments were performed in a non-perfusing thermostatted chamber (37° C.) with incubation medium without bovine serum albumin (Castilho et al., J. Neurosci. 18:10277–10286 (1998)).

[2] = test system: ERK-1/2; assay: Western blot of ERK-1/2 phosphorylation in 293T cells expressing NK1R; assay type: cell-based, human; conditions: 293T cells expressing the wild type NK1R, but not NK1Rd342
Description: For the transfected 293T cells, cells were washed with cold PBS after incubation with SP the time indicate and homogenized on lysis buffer (150 mM NaCl, 1% Triton X-100, 50 mM Tris HCL pH8.0). Cytoplasmic extracts were collected after 10 min centrifugation at 14,000 rcf. Total amount of protein was quantified by Bradford assay and electrophoresis of equal amounts of total protein was performed on SDS-polyacrylamide gels. Separated proteins were transferred to polyvinylidene fluoride membranes at 4° C. for Western blot analysis. Membranes were probed with a 1:1000 dilution of anti-ERK-1/2 or anti phospho-ERK-1/2 (BioSource). The blots were incubated in a horseradish peroxidase coupled secondary antibody for 1 h followed by enhanced chemiluminescence detection of the proteins with […]™ ECL detection (Amersham, Arlington Heights, Ill.). For striatal neurons, total ERK-1/2 was immunoprecipitated using superparamagnetic Microbeads conjugated to protein A, following manufacture's instructions (MACS, Miltenyi Biotec), and then developed by Western blot against either anti-ERK-1/2 or anti phospho-ERK-1/2.

[3] = test system: 293T cells transfected with NK1R; assay: SP-induced, NK1R-mediated cell death in 293T cells transfected with NK1R, trypan blue and staining; assay type: cell-based, human
Description: (§1) Human embryonic kidney 293T cells were grown as described in Example I. Transient transfection was performed using Superfect (Qiagen) as described by the manufacturer. Briefly, 2×10^5 cells/well were seeded into 35 mm wells 16 hr prior to transfection. Superfect:DNA complexes were added at a 5 μl:2 μg ratio for 3 hr; then the medium was replaced and after 24 hr SP was added. At 24–48 hr after addition of SP cell death was quantified as follows: the media containing floating cells were collected and centrifuged 10 min at 2000×g, the pellet was resuspended in PBS/trypan blue and the cells were counted using a hematocytometer. When other compounds were used, they were added at the same time as SP: zVAD.fmk or BAF was added at 50 μM and obtained from Enzyme System Products, Livermore, Calif.
Briefly, the method entailed cloning the full-length (1.2 kb) NK1R cDNA (Genbank Accession No. M31477) by RT-PCR from adult rat hippocampal RNA into the XbaI/EcoRI sites of the vector pcDNA3.1 (Invitrogen), using the following oligonucleotides: forward 5′[…] 3′ (SEQ ID NO:2); reverse 5′[…] 3′ (SEQ ID NO:3).
Cells were stained according to the manufacturer's instructions (Clontech). Briefly, cellswere washed with binding buffer and incubated with FITC-Annexin-V or EGFPAnnexin-V for 5–10 min and fixed with 4% paraformaldehyde.
Cells were fixed 10 min with 4% paraformaldehyde and stained according to the manufacturer's instructions (Promega).
The protein kinase inhibitors were added 30 min before SP exposure at the following concentrations: 10 μM Rp-8-Br-cAMPS (adenosin 3′,5′-cyclic monophosphorothioate, 8-bromo-, Rp-isomer, sodium salt) which is a PKA inhibitor; 50 nM Calphostin C, which is a PKC inhibitor; 10 μM PD 98059 which is a MAPKK (MEK) inhibitor. These compounds were obtained from Calbiochem. Viability was quantified by trypan blue staining of the total cell population.

[4] = test system: fibroblasts; assay: SP toxicity to fibroblasts; assay type: cell-based; conditions: extracellular SP
[5] = test system: total cellular cAMP; assay: cAMP quantification in 293T cells overexpressing NK1R; assay type: cell-based, human; conditions: compared with 10 μM forskolin
Description: Total cellular cAMP was measured using the BiotrakBIOTRAK™ non-acetylation enzymeimmunoassay system (Amersham Phramacia Biotech), following manufacturer's instructions. Forskolin (Sigma) was added at 10 μM.

[6] = test system: 293T human embryonic kidney cells; assay: SP toxicity to untransfected 293T cells; assay type: cell-based; conditions: no endogenous NK1R, up to millimolar SP
Description: as §1

[7] = test system: caspases, calpains, proteasome; assay: Protease activation during SP-induced cell death, substrate hydrolysis in cytosolic extracts of NK1R-transfected 293T cells; assay type: biochemical, human
Description: Preparation of cell-free extract for kinetic studies: 293T cells seeded at the density of 2 million cells per 10 cm dish were transfected with NK1R cDNA using Lipofectamine 2000 (Gibco) according the instructions provided by the manufacturer. After 24 hr 10 nM SP was added to half of the culture dishes. At 24 hr later the cells were washed with ice cold PBS and collected with a cell scraper. The cells pelleted at 700×g for 4 min were resuspended in cell lysis buffer at pH 7.4 containing 1 mM dithiothreitol at a ratio of 1:1 (v/v). After 30 min on ice the swelled cells were disrupted with 20 strokes using a 27 gauge needle and further spun at 16,000×g for 30 min. The pellet was discarded and the supernatant which represents the cytosolic fraction was aliquoted and stored at −80° C. or used in the kinetic studies. The protein concentration was determined using the Bradford assay (Pierce).
For kinetic studies, the proteolytic activities were followed fluorometrically by monitoring AFC or AMC release from 100 μM of the corresponding substrates (Enzyme Systems Products): Caspase-1 like, Ac-YVAD-AFC; caspase-2, Ac-VDVAD-AFC; caspases-3 like, Ac-DEVD-AFC; caspase-6, Ac-VEID-AFC; caspase-8, Ac-IETD-AFC; caspase-9, Ac-LEHD-AFC. Calpain activity was monitored with 100 μM Suc-LY-AFC (succinyl-Leu-Tyr-7-amino-4-methylcoumarin, Enzyme Systems Products) at 5 μM and 5 mM CaCl2. The chymotrypsin activity of the proteasome was followed with 100 μM Suc-LLVY-AFC (succinyl-Leu-Leu-Val-Tyr-7-amino-4-methylcoumarin, Enzyme Systems Products), and cathepsins were assayed using 20 μM Z-FR-AMC (Benzyloxycarbonyl-Phe-Arg-7-amino-4-methylcoumarin, Bachem). A 10 μl aliquot of extract in the presence or absence of SP was added to 90 μl of substrate at the appropriate concentration and pH. The reaction was continuously monitored during 30 min and 37° C. in a fluorescence microplate reader (Molecular Devices). The instrument was set at excitation and emission wavelengths of 405 and 510 for AFC releasing group, and 370 and 460 nm, for AMC releasing group, respectively. The steady-state hydrolysis rates were obtained from the linear part of the curves.

**Q.** “SP: eleven amino acid neurotransmitter of the tachykinin family, ligand of NK1R” was tested. Which “change in cytoplasmic calcium” value [1] did it give?
**A.** Its value is “did not induce a detectable change”.

**Q.** And the “activation of ERK-1/2 by SP” value [2]?
**A.** Its value is “activation of ERK-1/2”.

**Q.** What about the “sensitivity of NK1R-transfected 293T cells to SP” value [3] of the same substance?
**A.** The value was “sensitive to SP at nanomolar concentrations”.

**Q.** And the toxicity to fibroblasts [4]?
**A.** The toxicity to fibroblasts was “resistant to micromolar concentrations; also recorded: not toxic”.

**Q.** And the “production of cAMP in response to SP” value [5]?
**A.** Its value is “Neither the wild type nor the mutant NK1Rd342 overexpressed in 293T cells generated a significant amount of cAMP”.

**Q.** What about the “sensitivity of 293T cells to SP-induced cell death” value [6] of the same substance?
**A.** The value was “resistant”.

**Q.** And the “activation of calpains and chymotrypsin-like activity of the proteasome” value [7]?
**A.** The value was “no significant effect on the rates of substrate hydrolysis”.

**Q.** What about the “hydrolysis of substrates for initiator and executioner caspases” value ([7]; 10 nM SP, 24 hr) of the same substance?
**A.** Its value is “no hydrolysis of substrates”.

**Q.** And the “DEVDase activity in response to SP stimulation” value ([7]; extracts with granzyme B added)?
**A.** Its value is “no significant difference”.
